Patent US9775844B2, “Heterocyclic compounds and uses thereof” (Infinity Pharmaceuticals, Inc., priority 2014, dated 2017)

Legend:
[1] = target: PI3K α (Homo sapiens (Human), UniProt P42336); assay: PI3-Kinase Promega ADP-Glo Max assay; type: biochemical
[2] = target: PI3K β (Homo sapiens (Human), UniProt P42338); assay: PI3-Kinase Promega ADP-Glo Max assay; type: biochemical
Protocol: (§1) Promega ADP-Glo Max assay kit (Cat. No. V7002) was utilized to determine IC50 values for α, β, δ and γ isoforms of human Class I PI3 kinases (Millipore). […] Reactions were incubated at room temperature for 2 hours followed by addition of 25 uL of stop solution. After a 40-minute incubation at room temperature, 50 uL of Promega detection mix was added followed by incubation for 1 hour at room temperature. Plates were then read on Envision plate reader in lunimescence mode. Data was converted to % inhibition using the following equation below:
(§2) [formula] where S is the sample luminescence, Pos is a positive control without added PI3K, Neg is the negative control without added compound. Data was then plotted as % inhibition vs compound concentration.

[3] = target: PI3K δ (Homo sapiens (Human), UniProt O00329); assay: PI3-Kinase Promega ADP-Glo Max assay; type: biochemical
Protocol: as §1, §2

[4] = target: PI3K γ (Homo sapiens (Human), UniProt P48736); assay: PI3-Kinase Promega ADP-Glo Max assay; type: biochemical
Chain of PI3K γ (P48736 whole entry): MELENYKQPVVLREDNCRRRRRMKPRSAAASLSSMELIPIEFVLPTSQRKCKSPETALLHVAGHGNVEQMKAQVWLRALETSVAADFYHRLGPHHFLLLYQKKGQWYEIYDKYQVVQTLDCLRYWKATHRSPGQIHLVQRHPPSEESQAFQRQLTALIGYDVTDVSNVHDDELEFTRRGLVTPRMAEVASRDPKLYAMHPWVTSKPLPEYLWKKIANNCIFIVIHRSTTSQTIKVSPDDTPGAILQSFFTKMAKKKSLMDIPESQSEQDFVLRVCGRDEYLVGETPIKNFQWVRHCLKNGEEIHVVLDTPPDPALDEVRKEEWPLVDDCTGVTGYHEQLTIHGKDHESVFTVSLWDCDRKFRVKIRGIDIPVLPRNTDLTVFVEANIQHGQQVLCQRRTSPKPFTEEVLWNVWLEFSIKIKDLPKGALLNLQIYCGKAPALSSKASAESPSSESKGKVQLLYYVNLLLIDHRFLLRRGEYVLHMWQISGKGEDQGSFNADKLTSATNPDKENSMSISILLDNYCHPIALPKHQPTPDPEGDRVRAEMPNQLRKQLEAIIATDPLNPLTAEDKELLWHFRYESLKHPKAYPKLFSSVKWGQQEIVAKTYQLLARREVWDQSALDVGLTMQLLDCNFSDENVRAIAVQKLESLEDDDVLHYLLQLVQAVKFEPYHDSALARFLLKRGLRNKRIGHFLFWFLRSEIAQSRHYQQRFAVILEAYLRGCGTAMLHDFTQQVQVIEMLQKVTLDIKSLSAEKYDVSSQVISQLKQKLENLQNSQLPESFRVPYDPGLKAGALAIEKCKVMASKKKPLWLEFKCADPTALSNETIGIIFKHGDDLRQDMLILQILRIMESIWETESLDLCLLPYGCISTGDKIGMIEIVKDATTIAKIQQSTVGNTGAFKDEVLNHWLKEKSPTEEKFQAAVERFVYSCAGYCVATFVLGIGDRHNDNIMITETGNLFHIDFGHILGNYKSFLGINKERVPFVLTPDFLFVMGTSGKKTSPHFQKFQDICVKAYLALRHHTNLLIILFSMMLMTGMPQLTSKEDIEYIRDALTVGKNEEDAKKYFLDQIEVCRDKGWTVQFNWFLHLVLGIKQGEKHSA

[5] = target: PI3K-δ in RAJI cells (Homo sapiens (Human), UniProt O00329); assay: RAJI p110 δ assay (PI3K-δ selective cellular assay, phospho-AKT); type: cell-based; conditions: phospho-AKT; read-out: RAJI p110 δ assay IC50
[6] = target: PI3K-γ in RAW264.7 macrophages (Mus musculus (Mouse), UniProt Q9JHG7); assay: Raw264.7 p110 γ assay (PI3K-γ selective cellular assay, C5a-stimulated phospho-AKT); type: cell-based; conditions: for IC50: phospho-AKT, read-out: Raw264.7 p110 γ assay IC50
Chain of PI3K-γ in RAW264.7 macrophages (Q9JHG7 whole entry): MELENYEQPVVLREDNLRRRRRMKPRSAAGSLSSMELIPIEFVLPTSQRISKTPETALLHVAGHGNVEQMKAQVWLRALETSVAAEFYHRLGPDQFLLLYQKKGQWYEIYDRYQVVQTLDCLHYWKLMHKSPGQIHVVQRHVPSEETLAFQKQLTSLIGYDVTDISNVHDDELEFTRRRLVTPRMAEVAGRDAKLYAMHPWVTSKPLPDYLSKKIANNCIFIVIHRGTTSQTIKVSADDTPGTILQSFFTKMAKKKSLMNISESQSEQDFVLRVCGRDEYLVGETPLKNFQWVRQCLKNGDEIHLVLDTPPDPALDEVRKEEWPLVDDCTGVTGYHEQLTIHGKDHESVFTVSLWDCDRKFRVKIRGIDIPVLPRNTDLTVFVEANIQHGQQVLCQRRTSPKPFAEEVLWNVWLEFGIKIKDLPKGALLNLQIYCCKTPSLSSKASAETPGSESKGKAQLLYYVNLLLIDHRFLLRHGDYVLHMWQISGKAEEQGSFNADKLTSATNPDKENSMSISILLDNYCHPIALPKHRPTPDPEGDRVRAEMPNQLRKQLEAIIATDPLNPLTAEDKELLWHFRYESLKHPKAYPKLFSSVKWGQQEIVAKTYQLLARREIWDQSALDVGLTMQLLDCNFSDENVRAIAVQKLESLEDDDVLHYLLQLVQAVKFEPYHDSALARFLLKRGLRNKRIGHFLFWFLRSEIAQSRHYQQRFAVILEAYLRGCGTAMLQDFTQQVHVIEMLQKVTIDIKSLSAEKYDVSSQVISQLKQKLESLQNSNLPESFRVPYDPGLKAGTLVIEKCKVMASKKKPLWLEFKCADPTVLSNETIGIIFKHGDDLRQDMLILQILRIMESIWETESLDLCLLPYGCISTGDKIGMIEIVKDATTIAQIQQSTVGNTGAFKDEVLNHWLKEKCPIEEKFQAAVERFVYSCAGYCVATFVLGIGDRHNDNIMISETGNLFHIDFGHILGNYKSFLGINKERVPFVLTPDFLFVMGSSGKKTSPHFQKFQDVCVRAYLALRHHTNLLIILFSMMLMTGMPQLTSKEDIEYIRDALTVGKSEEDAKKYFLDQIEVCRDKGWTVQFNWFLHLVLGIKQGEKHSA
Description: Briefly, serum-starved RAW264.7 cells are stimulated with a known GPCR agonist C5a. […] Cells can be treated with test compounds prior to, simultaneously with, or subsequent to the stimulation by C5a. RAW 264.7 cells respond to the complement component fragment C5a through activation of the C5a receptor, and the C5a receptor activates macrophages and induces cell migration.

Chain of PI3K α (P42336 whole entry): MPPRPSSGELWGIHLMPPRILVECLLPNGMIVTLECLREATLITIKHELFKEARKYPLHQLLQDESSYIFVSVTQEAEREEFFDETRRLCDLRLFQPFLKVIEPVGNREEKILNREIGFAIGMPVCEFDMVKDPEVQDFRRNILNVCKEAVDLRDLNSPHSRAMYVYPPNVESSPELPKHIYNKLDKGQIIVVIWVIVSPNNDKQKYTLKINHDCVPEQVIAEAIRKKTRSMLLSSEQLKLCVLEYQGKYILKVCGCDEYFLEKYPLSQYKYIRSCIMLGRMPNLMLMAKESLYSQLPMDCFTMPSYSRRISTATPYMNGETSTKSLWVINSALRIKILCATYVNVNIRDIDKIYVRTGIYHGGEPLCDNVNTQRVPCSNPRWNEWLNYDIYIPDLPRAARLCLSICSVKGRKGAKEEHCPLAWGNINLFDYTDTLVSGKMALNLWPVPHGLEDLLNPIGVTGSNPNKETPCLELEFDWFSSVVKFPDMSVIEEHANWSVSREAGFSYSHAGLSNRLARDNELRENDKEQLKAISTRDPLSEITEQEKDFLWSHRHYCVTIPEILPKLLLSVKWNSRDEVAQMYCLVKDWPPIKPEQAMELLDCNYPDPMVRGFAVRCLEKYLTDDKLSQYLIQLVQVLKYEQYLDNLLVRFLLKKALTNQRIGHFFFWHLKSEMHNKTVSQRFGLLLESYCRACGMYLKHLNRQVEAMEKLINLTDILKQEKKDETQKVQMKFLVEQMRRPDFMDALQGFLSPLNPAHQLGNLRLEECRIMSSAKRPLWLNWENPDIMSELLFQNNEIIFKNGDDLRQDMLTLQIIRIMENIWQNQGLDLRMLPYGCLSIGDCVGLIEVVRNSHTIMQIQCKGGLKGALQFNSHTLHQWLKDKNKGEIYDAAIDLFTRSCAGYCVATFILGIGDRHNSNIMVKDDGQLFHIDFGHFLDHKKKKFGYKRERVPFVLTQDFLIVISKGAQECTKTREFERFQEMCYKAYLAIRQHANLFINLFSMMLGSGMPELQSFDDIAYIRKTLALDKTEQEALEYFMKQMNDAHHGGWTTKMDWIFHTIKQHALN
Chain of PI3K α (P27986 whole entry partner): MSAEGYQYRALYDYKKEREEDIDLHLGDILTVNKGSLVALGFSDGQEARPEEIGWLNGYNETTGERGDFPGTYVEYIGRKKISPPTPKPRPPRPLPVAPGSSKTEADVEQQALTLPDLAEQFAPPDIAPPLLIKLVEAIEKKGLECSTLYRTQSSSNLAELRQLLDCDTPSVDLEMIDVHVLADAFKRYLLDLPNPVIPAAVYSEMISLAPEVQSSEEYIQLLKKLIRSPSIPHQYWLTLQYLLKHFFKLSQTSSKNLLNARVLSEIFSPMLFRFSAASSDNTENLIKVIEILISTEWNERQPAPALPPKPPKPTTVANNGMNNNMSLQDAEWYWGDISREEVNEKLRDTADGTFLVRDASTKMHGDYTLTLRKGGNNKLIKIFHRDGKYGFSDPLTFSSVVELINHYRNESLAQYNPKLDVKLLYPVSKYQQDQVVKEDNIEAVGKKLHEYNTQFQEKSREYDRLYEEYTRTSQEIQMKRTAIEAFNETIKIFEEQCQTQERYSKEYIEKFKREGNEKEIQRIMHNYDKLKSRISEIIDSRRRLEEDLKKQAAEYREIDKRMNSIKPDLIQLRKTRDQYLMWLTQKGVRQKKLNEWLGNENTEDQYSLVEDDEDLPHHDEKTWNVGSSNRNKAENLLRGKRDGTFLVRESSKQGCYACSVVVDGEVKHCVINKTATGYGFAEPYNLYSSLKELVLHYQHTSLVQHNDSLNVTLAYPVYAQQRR
Chain of PI3K β (P42338 whole entry): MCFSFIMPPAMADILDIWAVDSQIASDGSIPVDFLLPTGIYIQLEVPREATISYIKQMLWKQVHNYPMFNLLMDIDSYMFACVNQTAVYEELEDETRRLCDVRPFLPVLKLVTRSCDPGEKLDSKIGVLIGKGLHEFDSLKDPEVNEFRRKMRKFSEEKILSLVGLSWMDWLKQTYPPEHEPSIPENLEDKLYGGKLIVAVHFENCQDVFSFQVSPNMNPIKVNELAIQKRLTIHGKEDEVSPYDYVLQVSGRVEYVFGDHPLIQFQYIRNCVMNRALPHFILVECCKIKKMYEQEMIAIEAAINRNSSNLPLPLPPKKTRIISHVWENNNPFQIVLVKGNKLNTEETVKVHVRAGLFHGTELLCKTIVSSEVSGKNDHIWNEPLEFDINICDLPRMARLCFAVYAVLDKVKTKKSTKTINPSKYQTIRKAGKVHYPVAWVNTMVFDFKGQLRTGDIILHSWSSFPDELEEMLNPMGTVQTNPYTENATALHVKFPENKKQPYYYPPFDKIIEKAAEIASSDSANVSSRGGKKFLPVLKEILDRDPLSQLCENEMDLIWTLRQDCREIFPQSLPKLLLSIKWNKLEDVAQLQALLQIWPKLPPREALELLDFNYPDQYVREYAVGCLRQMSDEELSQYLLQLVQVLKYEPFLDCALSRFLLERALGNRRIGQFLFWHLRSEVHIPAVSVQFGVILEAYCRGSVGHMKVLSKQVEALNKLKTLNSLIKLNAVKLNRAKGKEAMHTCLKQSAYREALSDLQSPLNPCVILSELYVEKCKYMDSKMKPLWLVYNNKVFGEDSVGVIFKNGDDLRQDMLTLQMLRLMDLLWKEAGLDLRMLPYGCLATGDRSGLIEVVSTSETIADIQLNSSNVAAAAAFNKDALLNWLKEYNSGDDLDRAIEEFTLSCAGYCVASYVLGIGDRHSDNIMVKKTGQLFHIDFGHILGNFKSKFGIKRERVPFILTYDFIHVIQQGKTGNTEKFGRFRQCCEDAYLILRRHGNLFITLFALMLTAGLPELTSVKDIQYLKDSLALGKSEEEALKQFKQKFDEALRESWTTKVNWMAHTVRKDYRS
Chain of PI3K β (P27986 whole entry partner): as the sequence (P27986 whole entry partner) above

Row | SMILES | IC50 [1] [µM] | IC50 [2] [µM] | IC50 [3] [µM] | IC50 [4] [µM] | PI3K δ/PI3K γ IC50 (selectivity) [4] | IC50 [5] [µM] | RAJIδ/Raw264.7 γ IC50 (selectivity) [6] | IC50 [6] [µM]
1 | CC#Cc1cccc2nc([C@H](C)NC(=O)c3c(N)nn4cccnc34)n(-c3ccccc3)c(=O)c12 [Compound 1] | 5 to 10 | 1 to 5 | 0.5 to 1 | 0.001 to 0.1 | X (X = 10 to <50) | 0.001 to 0.1 | X (X = 10 to <50) | 0.001 to 0.05
2 | CC(C)C#Cc1cccc2cc([C@H](C)NC(=O)c3c(N)nn4cccnc34)n(-c3ccccc3)c(=O)c12 [Compound 2] | 5 to 10 | 5 to 10 | 5 to 10 | 0.5 to 1 | X (X = 10 to <50) | 0.5 to 1 | Y (Y = 50 to <850) | 0.001 to 0.05
3 | C[C@H](NC(=O)c1c(N)nn2cccnc12)c1cc2cccc(C#CC(C)(C)C)c2c(=O)n1-c1ccccc1 [Compound 3] | 5 to 10 | 5 to 10 | 5 to 10 | 1 to 5 | W (W = >1 to <10) | 1 to 10 | X (X = 10 to <50) | 0.05 to 0.1
4 | C[C@H](NC(=O)c1c(N)nn2cccnc12)c1cc2cccc(C#Cc3ccccc3)c2c(=O)n1-c1ccccc1 [Compound 5] | 5 to 10 | 5 to 10 | 0.001 to 0.5 | 1 to 5 | V (V = 0.1 to 1) | 0.001 to 0.1 | W (W = >1 to <10) | 0.001 to 0.05
5 | COc1ccc(C#Cc2cccc3cc([C@H](C)NC(=O)c4c(N)nn5cccnc45)n(-c4ccccc4)c(=O)c23)cn1 [Compound 6] | 5 to 10 | 5 to 10 | 5 to 10 | 0.1 to 0.5 | Y (Y = 50 to <850) | 0.5 to 1 | X (X = 10 to <50) | 0.001 to 0.05
6 | C[C@H](NC(=O)c1c(N)nn2cccnc12)c1cc2cccc(C#Cc3cncn3C)c2c(=O)n1-c1ccccc1 [Compound 7] | 5 to 10 | 5 to 10 | 5 to 10 | 0.1 to 0.5 | Y (Y = 50 to <850) | 0.5 to 1 | Y (Y = 50 to <850) | 0.001 to 0.05
7 | C[C@H](NC(=O)c1c(N)nn2cccnc12)c1cc2cccc(C#CC(C)(C)N)c2c(=O)n1-c1ccccc1 [Compound 8] | 5 to 10 | 5 to 10 | 5 to 10 | 0.5 to 1 | X (X = 10 to <50) | 1 to 10 | W (W = >1 to <10) | 0.1 to 10
8 | C[C@H](NC(=O)c1c(N)nn2cccnc12)c1cc2cccc(C#CC3CC3)c2c(=O)n1-c1ccccc1 [Compound 9] | 1 to 5 | 1 to 5 | 1 to 5 | 0.1 to 0.5 | X (X = 10 to <50) | 0.1 to 0.5 | Y (Y = 50 to <850) | 0.001 to 0.05
9 | C[C@H](NC(=O)c1c(N)nn2cccnc12)c1cc2cccc(C#CCN3CCOCC3)c2c(=O)n1-c1ccccc1 [Compound 10] | 5 to 10 | 5 to 10 | 5 to 10 | 0.1 to 0.5 | X (X = 10 to <50) | 1 to 10 | X (X = 10 to <50) | 0.001 to 0.05
10 | C[C@H](NC(=O)c1c(N)nn2cccnc12)c1cc2cccc(C#CC(C)(C)O)c2c(=O)n1-c1ccccc1 [Compound 11] | 5 to 10 | 5 to 10 | 5 to 10 | 0.1 to 0.5 | X (X = 10 to <50) | 1 to 10 | X (X = 10 to <50) | 0.05 to 0.1
11 | COCC#Cc1cccc2cc([C@H](C)NC(=O)c3c(N)nn4cccnc34)n(-c3ccccc3)c(=O)c12 [Compound 12] | 5 to 10 | 1 to 5 | 1 to 5 | 0.001 to 0.1 | X (X = 10 to <50) | 0.1 to 0.5 | X (X = 10 to <50) | 0.001 to 0.05
12 | C[C@H](NC(=O)c1c(N)nn2cccnc12)c1cc2cccc(C#CCO)c2c(=O)n1-c1ccccc1 [Compound 13] | 5 to 10 | 1 to 5 | 0.5 to 1 | 0.001 to 0.1 | X (X = 10 to <50) | 0.001 to 0.1 | W (W = >1 to <10) | 0.001 to 0.05
13 | C[C@H](NC(=O)c1c(N)nn2cccnc12)c1cc2cccc(C#CCN3CCCC3=O)c2c(=O)n1-c1ccccc1 [Compound 14] | 1 to 5 | 1 to 5 | 0.001 to 0.5 | 0.001 to 0.1 | X (X = 10 to <50) | 0.001 to 0.1 | W (W = >1 to <10) | 0.001 to 0.05
14 | C[C@H](NC(=O)c1c(N)nn2cccnc12)c1cc2cccc(C#C[C@@H](C)O)c2c(=O)n1-c1ccccc1 [Compound 15] | 5 to 10 | 5 to 10 | 0.5 to 1 | 0.001 to 0.1 | X (X = 10 to <50) | 0.1 to 0.5 | W (W = >1 to <10) | 0.001 to 0.05
15 | C[C@H](O)C#Cc1cccc2cc([C@H](C)NC(=O)c3c(N)nn4cccnc34)n(-c3ccccc3)c(=O)c12 [Compound 16] | 5 to 10 | 1 to 5 | 1 to 5 | 0.001 to 0.1 | Y (Y = 50 to <850) | 0.1 to 0.5 | X (X = 10 to <50) | 0.001 to 0.05
16 | C[C@H](NC(=O)c1c(N)nn2cccnc12)c1cc2cccc(C#Cc3cccnc3)c2c(=O)n1-c1ccccc1 [Compound 17] | 5 to 10 | 5 to 10 | 5 to 10 | 0.1 to 0.5 | Y (Y = 50 to <850) | 0.1 to 0.5 | Y (Y = 50 to <850) | 0.001 to 0.05
17 | COc1ncc(C#Cc2cccc3cc([C@H](C)NC(=O)c4c(N)nn5cccnc45)n(-c4ccccc4)c(=O)c23)cn1 [Compound 18] | 5 to 10 | 5 to 10 | 5 to 10 | 0.1 to 0.5 | Y (Y = 50 to <850) | 0.1 to 0.5 | X (X = 10 to <50) | 0.001 to 0.05
18 | C[C@H](NC(=O)c1c(N)nn2cccnc12)c1nc2cccc(C#Cc3cnn(C)c3)c2c(=O)n1-c1ccccc1 [Compound 21] | 5 to 10 | 5 to 10 | 5 to 10 |  |  | 0.1 to 0.5 |  | 
19 | C[C@H](NC(=O)c1c(N)nn2cccnc12)c1cc2cccc(C#Cc3cnn(C)c3)c2c(=O)n1C1CC1 [Compound 25] | 1 to 5 | 1 to 5 | 5 to 10 |  |  | 0.1 to 0.5 |  | 0.001 to 0.05
20 | COc1cnc(C(=O)N[C@@H](C)c2cc3cccc(C#Cc4cnn(C)c4)c3c(=O)n2-c2ccccc2)c(N)n1 [Compound 71] | 5 to 10 | 5 to 10 | 5 to 10 | > 5 | V (V = 0.1 to 1) | 1 to 10 |  | 
21 | Cc1ccnc2c(C(=O)N[C@@H](C)c3cc4cccc(C#Cc5cnn(C)c5)c4c(=O)n3-c3ccccc3)c(N)nn12 [Compound 102] | 5 to 10 | 5 to 10 | 5 to 10 | 0.1 to 0.5 | X (X = 10 to <50) |  |  | 
22 | CC(C)n1c([C@H](C)NC(=O)c2c(N)nn3cccnc23)cc2cccc(C#Cc3cnn(C)c3)c2c1=O [Compound 103] | 5 to 10 | 5 to 10 | 5 to 10 | 0.5 to 1 | X (X = 10 to <50) |  |  | 
23 | C[C@H](NC(=O)c1c(N)nn2cccnc12)c1cc2cccc(C#Cc3cnn(C)c3)c2c(=O)n1CCS(=O)(=O)N(C)C [Compound 104] | 1 to 5 | 1 to 5 | 5 to 10 | 0.001 to 0.1 | Y (Y = 50 to <850) |  |  | 
24 | CC[C@H](NC(=O)c1c(N)nn2cccnc12)c1cc2cccc(C#Cc3cnn(C)c3)c2c(=O)n1-c1ccccc1 [Compound 105] | 1 to 5 | 5 to 10 | 5 to 10 | 0.001 to 0.1 | Y (Y = 50 to <850) |  |  | 
25 | Cc1ccn2nc(N)c(C(=O)N[C@@H](C)c3cc4cccc(C#Cc5cnn(C)c5)c4c(=O)n3-c3ccccc3)c2n1 [Compound 106] | 5 to 10 | 1 to 5 | 5 to 10 | 0.001 to 0.1 | Y (Y = 50 to <850) |  |  | 
26 | Cn1cc(C#Cc2cccc3cc(CNC(=O)c4c(N)nn5cccnc45)n(-c4ccccc4)c(=O)c23)cn1 [Compound 107] | 5 to 10 | 5 to 10 | 5 to 10 | 1 to 5 | X (X = 10 to <50) |  |  | 
27 | Cc1cc(C)n2nc(N)c(C(=O)N[C@@H](C)c3cc4cccc(C#Cc5cnn(C)c5)c4c(=O)n3-c3ccccc3)c2n1 [Compound 108] | 5 to 10 | 5 to 10 | 5 to 10 | 0.1 to 0.5 | X (X = 10 to <50) |  |  | 
28 | C[C@H](NC(=O)c1c(N)nn2cccnc12)c1cc2cccc(N)c2c(=O)n1-c1ccccc1 [Compound 109, (S)-2-amino-N-(1-(8-amino-1-oxo-2-phenyl-1,2-dihydroisoquinolin-3-yl)ethyl)pyrazolo[1,5-a]pyrimidine-3-carboxamide] | 5 to 10 | 1 to 5 | 1 to 5 | 0.001 to 0.1 | X (X = 10 to <50) |  |  | 
